# Results as given in US4200578A, “Thiazole derivatives” (Bristol-Myers Company, priority 1978, dated 1980).
# Read-outs that look alike come from different tables or passages of the source.
# How the values were obtained:
# gastric acid output = assay: Gastric antisecretory activity in the two hour pylorus ligated (Shay) rat; type: in vivo, rat (male Long Evans); conditions: for ED50: Rattus norvegicus, 2 h; for ED50 / Percent Inhibition Acid Output / Potency Ratio: ip; for potency as inhibitor of gastric acid secretion compared with cimetidine: rats (in vivo); for Potency Ratio: relative to cimetidine (1.0)
# From the text: Determination of Gastric Antisecretory Activity in the Two Hour Pylorus Ligated (Shay) Rat
# The pyloric ligation procedure in the rat was designed by Shay et al., Gastroenterology, 5, 53 (1945) for the study of perforating gastric ulcers; however, as the method became known, it was also employed as a means of studing rat gastric secretion, Shay et al., Gastroenterology, 26, 906 (1954), Brodie, D. A., Am. J. Dig. Dis., 11, 231 (1966). A modification of this procedure is presently used to evaluate compounds for gastric antisecretory activity.
# Male Long Evans rats, 280-300 gm., are used. The animals are placed in individual cages and fasted for 24 hours with free access to water. Under ether anesthesia, the stomach is reached through a midline incision, and a cotton-thread ligature is placed around the pylorus. After wound closure, ether administration is stopped and either cimetidine, BL-6040, BL-6044 or vehicle is administered intraperitoneally in a volume of […]. All compounds are solubilized with one equivalent of HCl and brought to the proper volume with water. The animals are returned to their cages from which the water bottles have been removed and two hours later are sacrificed with ether. The stomach is removed and the two hour gastric collection is drained into a graduated test tube for volume determination. Titratable acidity is measured by titrating a one ml. sample to pH 7.0 with 0.02 NaOH, using an Autoburet and electrometric pH meter (Radiometer). Titratable acid output is calculated in microequivalents by mutiplying the volume in milliliters by the acid concentration in milliequivalents per liter. The percent inhibition of acid output is calculated as follows [formula]
# [1] = target: T1, histamine H2-receptor (isolated guinea pig right atria) (Cavia porcellus, UniProt P47747); assay: Histamine H2-receptor antagonism, isolated guinea pig right atria assay; conditions: for Histamine ED50 with 95% confidence limits, after test compound: ED50 of histamine in presence of test compound 3 × 10^-5 M, 30 minute incubation, N = 8 (cimetidine), 2 (BL-6040, BL-6044); for potency as histamine H2-receptor antagonist compared with cimetidine: isolated guinea pig atria (in vitro); for Concentration-Response Curve Displacement Factor: test compound 3 × 10^-5 M
# T1 construct: The spontaneously beating right atrium was dissected free from other tissues; from tissue; host or cells: spontaneously beating right atrium of male Hartley strain guinea pigs
# Experimental: The present comparative studies were carried out using a modification of the procedure reported by Reinhardt et al., Agents and Actions, 4, 217 (1974).
# Male Hartley strain guinea pigs (350-450 gm.) were sacrificed by a blow on the head. The heart was excised and placed in a Petri dish of oxygenated (95% O2, 5% CO2) modified Krebs solution (g./liter: NaCl 6.6, KCl 0.35, MgSO4.7 H2 O 0.295, KH2 PO4 0.162, CaCl2 0.238, NaHCO3 2.1 and dextrose 2.09). The spontaneously beating right atrium was dissected free from other tissues and a silk thread (4-0) attached to each end. The atrium was suspended in a 20 ml. muscle chamber containing oxygenated modified Krebs solution maintained at 32° C. Atrial contractions were recorded isometrically by means of a Grass FT 0.03 force displacement transducer and recordings of contractile force and rate were made with Beckman RP Dynograph.
# A resting tension of 1 g. was applied to the atrium and it was allowed to equilibrate for 1 hour.
# Concentration-response curve displacement factors were calculated as follows: [formula] The factors obtained for BL-6040 and BL-6044 were then expressed as ratios of the factor obtained for cimetidine. [formula]
# gastric secretion = conditions: animals and man; cited from earlier work
# [2] = cited from earlier work
# histamine H2-receptor = conditions: cited from earlier work
# peptic ulcer disease = conditions: clinical evaluation; cited from earlier work
# [3] = in vivo; cited from earlier work
# [4] = inhibition of gastric acid output, two hours, read-out: ED50
# [5] = inhibition of gastric acid output
# T1 sequence (P47747 whole entry): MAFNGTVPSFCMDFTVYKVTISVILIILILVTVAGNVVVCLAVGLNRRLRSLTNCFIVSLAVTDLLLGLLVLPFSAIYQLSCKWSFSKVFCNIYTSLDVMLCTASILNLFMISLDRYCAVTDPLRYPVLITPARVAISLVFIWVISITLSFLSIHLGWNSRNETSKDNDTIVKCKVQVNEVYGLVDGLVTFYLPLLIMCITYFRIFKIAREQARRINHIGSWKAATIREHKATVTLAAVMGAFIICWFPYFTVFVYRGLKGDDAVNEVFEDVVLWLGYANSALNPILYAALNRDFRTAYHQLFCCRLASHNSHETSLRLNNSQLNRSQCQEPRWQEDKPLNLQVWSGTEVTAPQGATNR
"Histamine ED50 with 95% confidence limits, after test compound [1] [µg/mL]",potency as histamine H2-receptor antagonist compared with cimetidine [1],Concentration-Response Curve Displacement Factor [1],Compound,ED50 (gastric acid output; [4]) [µmol/kg],"Percent Inhibition Acid Output (gastric acid output; 5 μMole/kg, two hours) [%]","Percent Inhibition Acid Output (gastric acid output; 10 μMole/kg, two hours) [%]","Percent Inhibition Acid Output (gastric acid output; 20 μMole/kg, two hours) [%]",potency as inhibitor of gastric acid secretion compared with cimetidine (gastric acid output),Potency Ratio (gastric acid output; [5]),inhibition of gastric secretion (gastric secretion),"oral absorption ([2]; in vivo, po)",H2-receptor antagonism (histamine H2-receptor),efficacy in the treatment of peptic ulcer disease (peptic ulcer disease),ED50 (gastric acid output) [µmol/kg],half-life ([2]; in vivo),toxicity (agranulocytosis) [3],oral activity ([2]; man)
20.79,more potent than cimetidine,46.20,"C#CCNC(=C[N+](=O)[O-])NCCSCc1nccs1 [BL-6040, 1-Nitro-2-(2-propynylamino)-2-{2-[(thiazol-2-yl)methylthio]ethylamino}ethylene]",4.11,53,69,80,more potent than cimetidine,2.93,,,,,,,,
14.25,more potent than cimetidine,43.18,"C#CCNC(=NCCSCc1nccs1)NC#N [BL-6044, N-Cyano-N'-(2-propyn-1-yl)-N""-{2-[(thiazol-2-yl)methylthio]ethyl}guanidine]",5.73,52,58,73,more potent than cimetidine,2.11,,,,,,,,
,,,CNC(=S)NCCCCc1cnc[nH]1 [Burimamide],,,,,,,inhibits gastric secretion in animals and man,poor,a competitive antagonist of these receptors,,,,,
,,,C/N=C(\S)NCCSCc1[nH]cnc1C [Metiamide],,,,,,,,,more potent than burimamide,,,,toxicity (agranulocytosis),orally active in man

Compound,"Histamine ED50 with 95% confidence limits, after test compound [1] [µg/mL]",potency as histamine H2-receptor antagonist compared with cimetidine [1],Concentration-Response Curve Displacement Factor [1],ED50 (gastric acid output; [4]) [µmol/kg],"Percent Inhibition Acid Output (gastric acid output; 5 μMole/kg, two hours) [%]","Percent Inhibition Acid Output (gastric acid output; 10 μMole/kg, two hours) [%]","Percent Inhibition Acid Output (gastric acid output; 20 μMole/kg, two hours) [%]",potency as inhibitor of gastric acid secretion compared with cimetidine (gastric acid output),Potency Ratio (gastric acid output; [5]),inhibition of gastric secretion (gastric secretion),"oral absorption ([2]; in vivo, po)",H2-receptor antagonism (histamine H2-receptor),efficacy in the treatment of peptic ulcer disease (peptic ulcer disease),ED50 (gastric acid output) [µmol/kg],half-life ([2]; in vivo),toxicity (agranulocytosis) [3],oral activity ([2]; man)
"CN/C(=N/CCSCc1nc[nH]c1C)NC#N [Cimetidine, reference compound]",4.80,,25.26,,26,45,76,,,,,as effective an H2 antagonist as metiamide,effective therapeutic agent in the treatment of peptic ulcer disease,12.1,relatively short,without producing agranulocytosis,
